# Experimental data reported in patent publication US12473295B2, “Substituted straight chain spiro derivatives” (Janssen Pharmaceutica NV, priority 2019, dated 2025).
# pIC50: −log10 of the molar value. Counter-ions that a name gives are not always drawn. Like-named read-outs stand apart in the source and are kept apart here.
# Tests used:
# [1] = target: hERG potassium channel (Homo sapiens (Human), UniProt Q12809); assay: Effect on membrane potassium current IKr in hERG transfected CHO cells, Protocol 1 (QPatch); format: cell-based
# hERG potassium channel, sequence (Q12809 whole entry): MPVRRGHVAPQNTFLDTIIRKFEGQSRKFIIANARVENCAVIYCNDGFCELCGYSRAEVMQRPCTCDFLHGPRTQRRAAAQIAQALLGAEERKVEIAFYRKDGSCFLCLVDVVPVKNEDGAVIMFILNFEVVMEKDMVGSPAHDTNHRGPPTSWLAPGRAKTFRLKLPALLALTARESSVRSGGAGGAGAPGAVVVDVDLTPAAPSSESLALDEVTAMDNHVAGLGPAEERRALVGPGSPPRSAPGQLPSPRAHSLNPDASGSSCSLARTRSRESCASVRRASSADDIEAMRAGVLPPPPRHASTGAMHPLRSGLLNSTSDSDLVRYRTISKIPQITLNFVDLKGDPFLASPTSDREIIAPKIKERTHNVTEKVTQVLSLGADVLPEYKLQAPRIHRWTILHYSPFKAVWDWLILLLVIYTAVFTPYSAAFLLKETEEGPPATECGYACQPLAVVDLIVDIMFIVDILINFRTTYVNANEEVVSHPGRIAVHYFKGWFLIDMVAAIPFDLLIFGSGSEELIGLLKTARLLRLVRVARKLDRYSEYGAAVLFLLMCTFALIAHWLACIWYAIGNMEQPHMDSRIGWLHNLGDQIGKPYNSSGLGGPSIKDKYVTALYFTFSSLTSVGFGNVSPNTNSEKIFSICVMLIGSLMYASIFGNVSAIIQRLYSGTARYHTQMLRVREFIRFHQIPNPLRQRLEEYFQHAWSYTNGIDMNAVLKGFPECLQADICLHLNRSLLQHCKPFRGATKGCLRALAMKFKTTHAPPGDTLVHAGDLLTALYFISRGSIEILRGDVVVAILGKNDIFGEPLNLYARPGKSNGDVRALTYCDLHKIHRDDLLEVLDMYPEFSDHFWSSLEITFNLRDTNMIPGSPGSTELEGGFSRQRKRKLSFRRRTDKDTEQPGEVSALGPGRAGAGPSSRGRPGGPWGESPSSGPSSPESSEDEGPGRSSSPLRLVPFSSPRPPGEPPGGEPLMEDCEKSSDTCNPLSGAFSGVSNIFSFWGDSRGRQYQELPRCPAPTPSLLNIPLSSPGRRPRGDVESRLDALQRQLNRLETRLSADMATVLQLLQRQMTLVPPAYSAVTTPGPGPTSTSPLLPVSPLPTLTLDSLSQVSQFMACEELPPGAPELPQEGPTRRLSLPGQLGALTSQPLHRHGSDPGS
# Summary of the method: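 Whole-cell automated patch clamp on CHO cells stably expressing hERG, held at −80 mV; the value is the tail current at −40 mV after a 2 s step to +60 mV, at pH 7.4 bath and pH 7.2 pipette. After 0.3% DMSO control, compound was applied at 3×10^−7 M, 3×10^−6 M, 10^−5 M and 3×10^−5 M, 5 min each. IC50 comes from a non-linear least-squares fit of block versus vehicle.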
# [2] = Metabolic stability in human liver microsomes; format: in vitro ADME; conditions: human liver microsomes 0.5 mg/mL, 1 μM test compound, pH 7.4; for microsomal CLint at 1 μM: read-out: Human LM Clint
# Experimental: (§1) 4) Metabolic Stability in Human/Mouse Liver Microsomes
# (§2) The objective of this study is to measure in vitro metabolic stability of test compound(s) in human and mouse liver microsomes and provide quantitative information on the rate of metabolic turnover (i.e. determination of the apparent intrinsic clearance of test).
# (§3) Test items were prepared at a stock concentration of 10 mM in DMSO. For determination of metabolic turnover, a final working solution was prepared by adding 2 μL of 10 mM DMSO stock solution for test compound or positive control compounds to 198 μL of acetonitrile (100 μM final concentration).
# (§4) Incubations were performed as follows: First, liver microsomes were thawed on ice and a master solution containing liver microsomes in 100 mM PBS (phosphate-buffered saline) at pH 7.4 is prepared. Next, the liver microsomes solution was added to the incubation plates and 10 mM NADPH (Nicotinamide-adenine dinucleotide phosphate) was added (MW: 833.4 g/mol; Roche Diagnostics GmbH, Germany. Dissolved in phosphate buffer (100 mmol/L, pH 7.4)). The mixture was mixed for 10 seconds and pre-warmed in the incubation plate at 37° C. for 10 minutes. The metabolic reaction was initiated with the addition of 5 μL of the 100 μM working solution for test compound or positive control compounds to incubation plate (final test item concentration=1 μM). The reaction final mixture should contain 1 mM NADPH, 0.5 mg/mL microsomes protein and 1 μM test compound or positive control compound in 100 mM PBS at pH 7.4. The percentage of organic solvent in incubation mixture is 1% with DMSO ≤0.02%.
# (§5) The reaction was quenched by transferring 50 μL of the incubated mixture at selected time points into the quenching plate containing 200 μL of cold methanol. After sampling of all the timepoints the quenching plate was centrifuged at 4000 rpm for 40 minutes to precipitate protein. A total of 90 μL of the supernatant was transferred to an analysis plate and ultra-pure H2O water is added into each well for LC/MS/MS analysis. All incubations and analysis were performed in duplicate.
# (§6) All calculations were carried out using Microsoft Excel. The slope value, k, was determined by linear regression of the natural logarithm of the remaining percentage of the parent drug vs. incubation time curve.
# (§7) The in vitro half-life (in vitro tin) was determined from the slope value: in vitro t1/2=−(0.693/k)
# (§8) Conversion of the in vitro tin (in min) into the in vitro intrinsic clearance (in vitro CLint, in μL/min/mg proteins) was done using the following equation: […]
# [3] = tested on: OCI-AML3 cells; assay: Proliferation assay (spheroid growth, 8 days), OCI-AML3; format: cell-based, human; conditions: OCI-AML3, 8 days
# Summary of the method: (§9)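 8-day spheroid growth in ultra-low attachment plates; seeding 200 cells (MOLM14, OCI-AML3) or 300 (KO-52); DMSO 0.3%. Day-8 imaging, confluence vs DMSO (0%) and top reference dose (baseline); IC50 by variable-slope fit.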
# [4] = target: menin/MLL (terbium chelate-labeled menin, FITC-MBM1 peptide) (Homo sapiens (Human), UniProt O00255); assay: Menin/MLL homogenous time-resolved fluorescence (HTRF) assay; format: binding;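 note: IC50 from percent inhibition of HTRF signal, normalized between wells without competitor and wells with a saturating competitor that displaces FITC-MBM1 from His-tagged menin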
# menin/MLL (terbium chelate-labeled menin, FITC-MBM1 peptide), sequence (O00255 other isoform, or with tags, fused parts or gaps): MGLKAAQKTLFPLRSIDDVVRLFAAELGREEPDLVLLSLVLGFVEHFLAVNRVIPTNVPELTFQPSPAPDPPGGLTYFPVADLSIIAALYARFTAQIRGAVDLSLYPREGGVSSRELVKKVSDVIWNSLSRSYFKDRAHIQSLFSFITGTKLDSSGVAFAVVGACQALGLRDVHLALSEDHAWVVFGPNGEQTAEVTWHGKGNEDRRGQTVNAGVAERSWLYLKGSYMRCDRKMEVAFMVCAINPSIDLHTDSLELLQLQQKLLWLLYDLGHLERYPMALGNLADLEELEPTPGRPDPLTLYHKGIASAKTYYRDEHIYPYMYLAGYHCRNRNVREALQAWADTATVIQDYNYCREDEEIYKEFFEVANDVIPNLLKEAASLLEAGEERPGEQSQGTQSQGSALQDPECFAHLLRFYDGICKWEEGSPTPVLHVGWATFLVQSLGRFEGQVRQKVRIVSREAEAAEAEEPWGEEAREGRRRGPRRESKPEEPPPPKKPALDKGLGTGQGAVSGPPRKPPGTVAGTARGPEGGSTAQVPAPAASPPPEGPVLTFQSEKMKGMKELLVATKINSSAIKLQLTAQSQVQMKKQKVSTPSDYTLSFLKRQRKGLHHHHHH
# [5] = tested on: KO-52 cells; assay: Proliferation assay (spheroid growth, 8 days), KO-52 control cell line; format: cell-based, human; conditions: read-out: spheroid assay_OneTime KO-52 IC50
# Summary of the method: as §9
# [6] = tested on: MEIS1 mRNA; assay: MEIS1 mRNA expression assay (Quantigene Singleplex) in MOLM14 cells; format: cell-based, human; conditions: 48 hours incubation;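 note: MEIS1 transcript levels read by probe hybridization and normalized to RPL28 mRNA, with IC50 fitted to fold changes across a rising compound concentration series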
# [7] = tested on: MOLM14 cells; assay: Proliferation assay (spheroid growth, 8 days), MOLM14; format: cell-based, human; conditions: MOLM14, 8 days, read-out: spheroid assay_OneTime MOLM14 IC50;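 note: spheroid size read as confluence by live-cell imaging, compounds added at a range of concentrations with 0.3% DMSO, DMSO-treated wells = 0%, highest reference dose = low control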
# [8] = Metabolic stability in mouse liver microsomes; format: in vitro ADME; conditions: mouse liver microsomes 0.5 mg/mL, 1 μM test compound, pH 7.4; for microsomal CLint at 1 μM: read-out: Mouse LM Clint
# Experimental: as §1, §2, §3, §4, §5, §6, §7, §8
# [9] = Mouse PK (in vivo T1/2 and oral bioavailability); conditions: fasted male CD-1 mice, formulating agent HP-β-CD
# Experimental: 3) Mouse PK (In Vivo T1/2 and Oral Bioavailability)
# In vivo pharmacokinetics (PK) were assessed in fasted male CD-1 mice (age 6-8 weeks) following a single intravenous (IV, 0.5 or 1.0 mg/kg administered at 2.5 ml/kg) or oral (PO, 5 mg/kg administered at 10 ml solution/kg) dose of test article formulated in a 20% (w:vol) HP-β-CD solution or in Pyrogen free water.
# Plasma and/or whole blood samples were collected from the dorsal metatarsal vein at desired timepoints via serial capillary microsampling (approx. 0.03 mL) using EDTA as an anticoagulant. Concentrations of compound in the plasma and blood samples were analyzed using a qualified LC-MS/MS method. In silico analysis of main pharmacokinetic parameters was performed using WinNonlin (Phoenix™, version 6.1) or similar software. (Results see Table 4)
# [10] = HTRF-30 min incubation IC50, 30 min incubation
# [11] = read-out: HTRF-30 min incubation IC50, 30 min incubation
microsomal CLint at 1 μM [2] [µL/min/mg],"pIC50 ([3]; Homo sapiens, OCI-AML-3, […])","pIC50 [4, 10]","pIC50 ([6]; Homo sapiens, MOLM-14, 48 h)","pIC50 ([7]; Homo sapiens, MOLM-14, […])",microsomal CLint at 1 μM [8] [µL/min/mg],Human LM Clint [2] [µL/min/mg],pIC50 [3],"pIC50 [4, 11]",pIC50 [6],pIC50 [7],Mouse LM Clint [8] [µL/min/mg],half-life ([9]; single IV 0.5 or 1.0 mg/kg) [h],bioavailability ([9]; single PO 5 mg/kg) [%],Structure (SMILES),pIC50 [1],"pIC50 ([5]; Homo sapiens, […])",pIC50 [5]
75,6.68,9.40,7.11,7.21,44,,,,,,,,,CCN(C(=O)c1cc(F)ccc1Oc1nncnc1N1CCC2(C1)CN([C@H](CCCN(C)CCC#N)C(C)C)C2)C(C)C [Compound 13],4.59,< 4.82,
,,,,,,43,5.90,9.43,6.68,6.66,110,,,"CNC(=O)CC[C@@H](C(C)C)N1CC2(CCN(c3ncnnc3Oc3ccc(F)cc3-c3cncnc3C3CC3)C2)C1 (single isomer, unassigned) [Compound 45, (*S)-4-(6-(6-(2-(4-cyclopropylpyrimidin-5-yl)-4-fluorophenoxy)-1,2,4-triazin-5-yl)-2,6-diazaspiro[3.4]octan-2-yl)-N,5-dimethylhexanamide]",4.90,,< 4.82
11,6.89,10.24,7.48,7.44,< 7.5,,,,,,,5.2,5.1,"CCN(C)C[C@H](O)C[C@H](C(C)C)N1CC2(CCN(c3ncnnc3Oc3ccc(F)cc3C(=O)N(CC)C(C)C)C2)C1.O=C(O)/C=C/C(=O)O (single isomer, unassigned) [Compound 346, N-ethyl-2-((5-(2-((3*R,5R)-6-(ethyl(methyl)amino)-5-hydroxy-2-methylhexan-3-yl)-2,6-diazaspiro[3.4]octan-6-yl)-1,2,4-triazin-6-yl)oxy)-5-fluoro-N-isopropylbenzamide fumarate]",,< 4.82,
539,6.38,,7.04,6.77,> 1000,,,,,,,,,"CCN(C(=O)c1cc(F)ccc1Oc1nnccc1N1CCC2(C1)CN([C@H](CCCN(C)CCOC)C(C)C)C2)C(C)C (single isomer, unassigned) [Compound 83]",5.22,5.20,
,,,,,,38,6.22,9.51,6.85,6.66,47,,,"CCN(C(=O)c1cc(F)ccc1Oc1nncnc1N1CCC2(C1)CN([C@H](CCCO)C(C)C)C2)C(C)C (single isomer, unassigned) [Compound 47, (*R)—N-ethyl-5-fluoro-2-((5-(2-(6-hydroxy-2-methylhexan-3-yl)-2,6-diazaspiro[3.4]octan-6-yl)-1,2,4-triazin-6-yl)oxy)-N-isopropylbenzamide]",< 4.52,,4.96
22,6.85,10.10,7.77,7.64,< 7.5,,,,,,,,,"CC(C)[C@@H](CCCN(C)C)N1CC2(CCN(c3ncnnc3Oc3ccc(F)cc3C(=O)N(C(C)C)C(C)C)C2)C1 (single isomer, unassigned) [Compound 396, (*R)-2-((5-(2-(6-(dimethylamino)-2-methylhexan-3-yl)-2,6-diazaspiro[3.4]octan-6-yl)-1,2,4-triazin-6-yl)oxy)-5-fluoro-N,N-diisopropylbenzamide oxalate]",< 4.52,5.07,
